The text below walks through data of PMC7694948, “Mitochondrial Targeting in an Anti-Austerity Approach Involving Bioactive Metabolites Isolated from the Marine-Derived Fungus Aspergillus sp” (Marine Drugs, 2020).

Assay [1] relates to oxygen consumption by PANC-1 cells. The arrangement: method as in PMID 32002808, PMID 26204821. The note with it: cited from earlier work.
The subject of assay [2] is human pancreatic carcinoma PANC-1 cells. The assay can be described thus: Cytotoxicity against PANC-1 cells under glucose-deficient or general culture conditions (WST-8). Particulars: for IC50: Homo sapiens, 12 h treatment, WST-8. Type of assay: cell-based. Here is the method: PANC-1 cells were maintained in DMEM supplemented with heat-inactivated 10% FBS and kanamycin (50 µg/mL) and grown at 37 °C in a 5% CO2 atmosphere. […] The general culture medium—that is, basal medium containing 10% FBS and […] glucose (final concentration, 25 mM)—was used for comparison. The assay was performed as previously described. Briefly, PANC-1 cells (1 × 10^4 cells/100 µL in 96-well plastic plates) were preincubated in DMEM containing 10% FBS for 24 h. The medium was then changed with either the general glucose medium or glucose-deficient medium to induce adaption to nutrient starvation. After 12-h incubation, serially diluted samples were added to the media. Then, the cells were incubated for an additional 12 h at 37 °C in a 5% CO2 atmosphere. Cell proliferation was identified using WST-8. The IC50 values were determined by linear interpolation of the growth inhibition curve. We assessed the selectivity of the antiproliferative activity (S.I.) on the basis of the difference in the IC50 values for the general culture and glucose-deficient media.
(Tetrazolium assays rely on reduction of a dye to a coloured formazan, in cell work by metabolically active cells.)

For assay [3], the target named is Mitochondrial complex III (coenzyme Q cytochrome c oxidoreductase) (Bos taurus, UniProt P00125+P00157+P13272). As to the kind of experiment: MitoCheck Complex Activity Assay, complex III. Type of assay: biochemical, bovine. On the procedure: (§1) The inhibitory activity of compound 1 on the mitochondrial electron transport chain (complexes I–V) was analyzed using MitoCheck Complex Activity Assay kits (Cayman Chemical) following the manufacturer’s instructions. The kits measured the enzymatic activity of each complex derived from bovine heart mitochondria in the following systems: Mitochondrial complex I (NADH oxidase/coenzyme Q reductase) activity was determined by measuring the decrease in NADH oxidation, which is reflected by a decrease in absorbance at 340 nm. Mitochondrial complex II (succinate dehydrogenase/coenzyme Q reductase) activity was assessed on the basis of the reduction rate of 2, 6-dichlorophenolindophenol (protonated by reduced coenzyme Q), which is reflected by a decrease in absorbance at 600 nm. Mitochondrial complex III (coenzyme Q cytochrome c oxidoreductase) activity was determined on the basis of the cytochrome c reduction rate, which is reflected by an increase in absorbance at 550 nm. Mitochondrial complex IV (cytochrome c oxidase) activity was determined by measuring the cytochrome c oxidation rate, which is reflected by a decrease in absorbance at 550 nm. Mitochondrial complex V (F1F0 ATP synthase) activity was determined by the NADH oxidation rate, which can be monitored at 340 nm.

The target of assay [4] is T1, Mitochondrial complex II (succinate dehydrogenase/coenzyme Q reductase) (Bos taurus, UniProt P31039+P35720+Q3T189+Q95123).
T1 construct: enzymatic activity of each complex derived from bovine heart mitochondria; purchased Cayman Chemical; host or cells: bovine heart mitochondria (tissue-derived, supplied in kit)
As to the kind of experiment: MitoCheck Complex Activity Assay, complex II. The format is biochemical, bovine. Particulars: bovine heart mitochondria. Here is the method: as §1

T1 sequence (P31039 44-665): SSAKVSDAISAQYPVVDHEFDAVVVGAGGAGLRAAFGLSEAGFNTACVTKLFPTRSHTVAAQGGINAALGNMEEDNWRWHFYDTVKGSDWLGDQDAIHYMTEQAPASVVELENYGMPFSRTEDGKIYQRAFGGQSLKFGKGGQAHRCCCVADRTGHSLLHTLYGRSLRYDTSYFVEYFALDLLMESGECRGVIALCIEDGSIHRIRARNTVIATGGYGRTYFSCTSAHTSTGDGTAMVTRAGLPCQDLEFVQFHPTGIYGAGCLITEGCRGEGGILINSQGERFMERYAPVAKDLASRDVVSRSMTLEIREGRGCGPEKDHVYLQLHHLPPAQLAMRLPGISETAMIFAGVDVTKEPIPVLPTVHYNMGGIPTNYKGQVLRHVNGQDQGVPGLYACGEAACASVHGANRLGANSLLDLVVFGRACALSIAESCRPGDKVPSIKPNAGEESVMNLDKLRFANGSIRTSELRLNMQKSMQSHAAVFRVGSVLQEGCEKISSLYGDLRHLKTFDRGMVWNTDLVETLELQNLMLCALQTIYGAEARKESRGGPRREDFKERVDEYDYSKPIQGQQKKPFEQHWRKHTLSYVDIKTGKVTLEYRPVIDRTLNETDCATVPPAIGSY
T1 sequence (Q3T189 29-280): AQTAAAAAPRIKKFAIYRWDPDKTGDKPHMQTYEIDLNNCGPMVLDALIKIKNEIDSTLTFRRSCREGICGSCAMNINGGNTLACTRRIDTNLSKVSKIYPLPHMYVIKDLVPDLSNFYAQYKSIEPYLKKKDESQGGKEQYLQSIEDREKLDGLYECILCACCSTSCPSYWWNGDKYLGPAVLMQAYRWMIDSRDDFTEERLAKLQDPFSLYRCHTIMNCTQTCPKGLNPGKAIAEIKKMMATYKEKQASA
T1 sequence (P35720 30-169): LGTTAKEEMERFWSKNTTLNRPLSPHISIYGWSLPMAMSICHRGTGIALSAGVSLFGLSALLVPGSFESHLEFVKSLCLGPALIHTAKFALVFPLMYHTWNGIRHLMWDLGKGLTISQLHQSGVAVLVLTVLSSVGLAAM
T1 sequence (Q95123 56-158): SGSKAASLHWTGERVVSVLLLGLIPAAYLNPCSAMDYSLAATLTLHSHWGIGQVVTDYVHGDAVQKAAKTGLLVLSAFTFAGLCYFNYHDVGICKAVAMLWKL
Mitochondrial complex III (coenzyme Q cytochrome c oxidoreductase), sequence (P00125 85-325): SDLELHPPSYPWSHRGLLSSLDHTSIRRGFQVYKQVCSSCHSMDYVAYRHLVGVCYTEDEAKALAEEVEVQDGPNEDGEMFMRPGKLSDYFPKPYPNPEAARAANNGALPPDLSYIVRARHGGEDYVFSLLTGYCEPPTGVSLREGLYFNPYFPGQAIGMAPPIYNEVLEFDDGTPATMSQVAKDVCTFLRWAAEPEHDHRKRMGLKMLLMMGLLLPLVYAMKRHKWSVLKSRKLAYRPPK
Mitochondrial complex III (coenzyme Q cytochrome c oxidoreductase), sequence (P00157 whole entry): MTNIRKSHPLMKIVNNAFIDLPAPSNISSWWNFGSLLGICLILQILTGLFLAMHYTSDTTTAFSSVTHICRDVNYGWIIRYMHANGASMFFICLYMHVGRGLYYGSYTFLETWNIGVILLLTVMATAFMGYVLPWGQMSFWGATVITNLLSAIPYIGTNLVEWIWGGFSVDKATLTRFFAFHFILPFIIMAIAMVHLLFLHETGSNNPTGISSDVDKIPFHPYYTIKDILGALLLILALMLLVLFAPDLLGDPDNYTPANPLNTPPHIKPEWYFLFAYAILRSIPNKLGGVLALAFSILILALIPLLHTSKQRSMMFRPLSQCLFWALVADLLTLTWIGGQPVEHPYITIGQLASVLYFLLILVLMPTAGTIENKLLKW
Mitochondrial complex III (coenzyme Q cytochrome c oxidoreductase), sequence (P13272 whole entry): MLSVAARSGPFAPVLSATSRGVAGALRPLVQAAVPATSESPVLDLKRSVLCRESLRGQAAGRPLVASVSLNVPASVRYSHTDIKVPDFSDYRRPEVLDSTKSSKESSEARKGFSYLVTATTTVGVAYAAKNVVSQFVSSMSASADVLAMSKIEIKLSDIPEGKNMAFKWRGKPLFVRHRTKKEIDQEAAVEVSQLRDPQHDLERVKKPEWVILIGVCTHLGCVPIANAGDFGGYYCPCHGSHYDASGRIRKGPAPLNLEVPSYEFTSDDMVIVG

As for `COC(=O)[C@@]12Oc3ccc(-c4ccc5c(c4O)C(O)C4=C(O)C[C@H](C)[C@@H](O)[C@]4(C(=O)OC)O5)c(O)c3C(=O)C1=C(O)C[C@H](C)[C@H]2O` (some centres unmarked) [secalonic acid D], in assay [1], the “effect on oxygen consumption” value is given as “increase the oxygen consumption”.

As a reminder, the IC50 is the midpoint of a concentration-inhibition curve. In the case of `CCCCCC[C@H]1C(=O)O[C@H](C)[C@H](NC(=O)c2cccc(NC=O)c2O)C(=O)O[C@@H](C)[C@@H]1OC(=O)CC(C)C` [Antimycin A, reference compound], the IC50 came out at 288 ± 0.5 µM in assay [2] (PANC-1, general glucose medium); 0.0003 µM in assay [2] (PANC-1, glucose-deficient medium, 12 h adaptation); 0.03 ± 0.01 µM in assay [3]. Besides, the “S.I. (selectivity index)” value in assay [2] (difference in IC50 values for general culture and glucose-deficient media) is 960,000. Further, in assay [1], the “effect on oxygen consumption” value is “reduces oxygen consumption”.

`N#CC(C#N)=NNc1cccc(Cl)c1` [CCCP, carbonyl cyanide m-chlorophenylhydrazone]: in assay [1], the “effect on oxygen consumption” value was “increase the oxygen consumption”.

Molecule `O=C(CC(=O)C(F)(F)F)c1cccs1` [thenoyltrifluoroacetone, reference compound] registered an IC50 in assay [4] of 68 ± 0.01 µM.
